Results reported in patent US10400004B2, “Chemical synthesis method of phillyrin” (priority 2014, dated 2019).
Read-outs that look alike come from different tables or passages of the source. Marks after values point to notes of the source that are not given here.

Legend:
Vero cells = test: Drug cytotoxicity assay (MTT) on Vero cells; assay type: cell-based, African green monkey; conditions: 72 h, Probit regression
Experimental: Vero cells were subcultured for 1-2 days to form a film. […] The digestion was drained after needle-like holes occurred on the cell surface, then cells were dispersed with a few milliliters of medium, counted, then diluted to about 5×10^7 cells/L with DMEM containing 10% fetal bovine serum and transferred to a 96-pore culture plate until monolayer formed.
Cytotoxicity test: the drugs were diluted according to the concentrations shown in Table 1-1 for cytotoxicity assays.
Different concentrations of drugs diluted with the above maintenance medium (DMEM containing 2% fetal calf serum) were added dropwise to Vero monolayer cells with 0.2 ml per pore, and for each concentration, the drugs were added in sextuplicate in 6 pores respectively. In addition, 6 pores were set up as normal control (without drugs) while another 6 pores as blank control (medium only). Cells were grown in a 37° C. incubator under 5% CO2. CPE was visualized under the invert microscope and recorded daily. After 72 h, 20 μL MTT solution (5 mg·mL^−1) was added into each pore and incubated for 4 h. The culture medium in each pore was sucked and discarded, 100 μL DMSO was added to each pore. Then the culture was shaken for 5 min, measured OD value at 492 nm to calculate the cell survival ratio. The cell survival ratio was analyzed using a Probit regression model in SPSS 18.0 statistical software, and the maximal nontoxic concentration (TC0) and median toxic concentration (TC50) of drugs against Vero cells were calculated.

Influenza virus [1] = test: Impact of the drugs on virus-induced cytopathy (MTT, ER %); assay type: cell-based
Parainfluenza virus [2] = test: as above; assay type: cell-based
[3] = tested on: Coxsackie virus A16 (CoxA16); test: as above; assay type: cell-based
[4] = tested on: respiratory syncytical virus (RSV); test: as above; assay type: cell-based
[5] = tested on: Herpes simplex virus type I (HSV-1); test: as above; assay type: cell-based
Adenovirus (AdV) = test: as above; assay type: cell-based
enterovirus EV71 = test: as above; assay type: cell-based
[6] = tested on: Coxsackie virus B3 (CVB3); test: as above; assay type: cell-based
influenza virus [7] = assay type: in vivo, Kunming mice
parainfluenza virus [8] = assay type: in vivo, Kunming mice
[9] = Solubility of the synthesized white solid; assay type: physicochemical; conditions: white solid of Embodiment 1
[10] = mice, influenza virus 15LD50 nasally, 19.5 mg/kg/d intragastric, 5 days
[11] = mice, parainfluenza virus 15LD50 nasally, 19.5 mg/kg/d intragastric, 5 days
[12] = summary of Table 1-3, Vero cells
[13] = mice, parainfluenza virus 15LD50 nasally, 3.25 mg/kg/d (low-dose) intragastric, 5 days

CCOC(=O)C1=C[C@@H](OC(CC)CC)[C@H](NC(C)=O)[C@@H](N)C1 [Oseltamivir phosphate, reference compound]
Maximal non-cytotoxic concentration (TC0) (Vero cells): 0.28 g/L | Median toxic concentration (TC50) (Vero cells): 832 µg/mL | antiviral efficiency (ER %) (Influenza virus [1]; Vero cells, 100 TCID50, 72 h, MTT, drug at maximal non-cytotoxic concentration or so (Table 1-2 last row: phillyrin 0.01, ribavirin 0.70, oseltamivir phosphate 0.30 g/L)): 81.76** % | antiviral efficiency (ER %) (Parainfluenza virus [2]): 94.52** % | antiviral efficiency (ER %) [3]: 2.95% | antiviral efficiency (ER %) [4]: 37.60% | antiviral efficiency (ER %) [5]: 66.56** % | antiviral efficiency (ER %) (Adenovirus (AdV)): 10.31% | antiviral efficiency (ER %) (enterovirus EV71): 51.86% | antiviral efficiency (ER %) [6]: 1.64% | Lung index (X ± S) (influenza virus [7]; [10]): 1.191 ± 0.062 | Lung index Inhibitory rate (%) (influenza virus [7]; [10]): 20.71% | Lung index (X ± S) (parainfluenza virus [8]; [11]): 1.256 ± 0.057 | Lung index Inhibitory rate (%) (parainfluenza virus [8]; [11]): 21.56%

phillyrin
Maximal non-cytotoxic concentration (TC0) (Vero cells): 0.006 g/L | Median toxic concentration (TC50) (Vero cells): 550 µg/mL | antiviral efficiency (ER %) (Influenza virus [1]): 75.38** % | inhibitory effect (in words) (Influenza virus [1]; [12]): significant | antiviral efficiency (ER %) (Parainfluenza virus [2]): 84.96** % | inhibitory effect (in words) (Parainfluenza virus [2]; [12]): significant | antiviral efficiency (ER %) [3]: 75.08** % | inhibitory effect (in words) [3, 12]: significant | antiviral efficiency (ER %) [4]: 80.40** % | inhibitory effect (in words) [4, 12]: significant | antiviral efficiency (ER %) [5]: 85.00** % | inhibitory effect (in words) [5, 12]: significant | antiviral efficiency (ER %) (Adenovirus (AdV)): 75.14** % | inhibitory effect (in words) (Adenovirus (AdV); [12]): significant | antiviral efficiency (ER %) (enterovirus EV71): 84.85** % | inhibitory effect (in words) (enterovirus EV71; [12]): significant | antiviral efficiency (ER %) [6]: 75.27** % | inhibitory effect (in words) [6, 12]: significant | effect on mice viral pneumonia (in words) (influenza virus [7]; influenza virus, 3.25 to 13.0 mg/kg/d): significant inhibitory effect | hemagglutination titers (in words) (influenza virus [7]; influenza virus, 3.25 to 13.0 mg/kg/d, compared to virus control group): greatly reduce | Lung index (X ± S) (influenza virus [7]; mouse, in vivo, 3.25 mg/kg/day): 1.339 ± 0.045 | Lung index Inhibitory rate (%) (influenza virus [7]; mouse, in vivo, 3.25 mg/kg/day): 10.82% | Lung index (X ± S) (influenza virus [7]; mouse, in vivo, 13 mg/kg/day): 1.290 ± 0.041 | Lung index Inhibitory rate (%) (influenza virus [7]; mouse, in vivo, 13 mg/kg/day): 14.51% | Lung index (X ± S) (parainfluenza virus [8]; [13]): 1.360 ± 0.052 | Lung index Inhibitory rate (%) (parainfluenza virus [8]; [13]): 15.03% | Lung index (X ± S) (parainfluenza virus [8]; mouse, in vivo, 13 mg/kg/day): 1.2297 ± 0.071 | Lung index Inhibitory rate (%) (parainfluenza virus [8]; mouse, in vivo, 13 mg/kg/day): 19.01% | effect on mice viral pneumonia (in words) (parainfluenza virus [8]; parainfluenza virus, 3.25 to 13.0 mg/kg/d): significant inhibitory effect | hemagglutination titers (in words) (parainfluenza virus [8]; parainfluenza virus, 3.25 to 13.0 mg/kg/d, compared to virus control group): greatly reduce | solubility (in words) [9]: soluble in chloroform and methanol
